Measurements published in patent publication US10709687B2, “FLT3 receptor inhibitor at low dosage for the treatment of neuropathic pain” (INSTITUT NATIONAL DE LA SANTE ET DE LA RECHERCHE MEDICALE …, priority 2016, dated 2020).
Like-named read-outs stand apart in the source and are kept apart here. Values belong to the molecule of their own block, whether it stands above or below them.

Assays:
[1] = cited from earlier work
[2] = system: nerve injury-induced mechanical pain hypersensitivity; test: Spinal Nerve Ligation (SNL) model, paw pressure test; format: in vivo, rat; conditions: for maximal inhibition on the SNL model in rat (dose): Method 1, no experimental details given; for Human Equivalent Dose (HED) from SNL rat dose: allometric FDA factor for the rat 6.2, human body weight 60 kg
Protocol: Adult Sprague Dawley rats (300-340 gr) (Janvier LABS, Le Genest Saint-Isle, France) were used according to the guidelines of the International Association for the Study of Pain. Rats were housed in cages with a 12/12 hr light/dark cycle and fed food and water ad libitum. Behavioral responsiveness of the rats was tested following ten days of habituation to the testing environment and the observer. Left side L5 spinal nerve was injured as described by Kim and Chung (1992) Pain 50, 355-363. Anesthesia was induced and maintained with isoflurane. A midline incision was made at the L3-S2 level and the dorsal vertebral column from L4 to S2 was exposed. Part of the L6 transverse process was carefully removed with fine rongeurs. The L5 spinal nerve were isolated and tightly ligated distal to the DRG with a 4-0 silk suture. The wound was closed in two layers using absorbable sutures. A similar procedure was performed for the sham surgery, except that spinal nerve was not isolated and not ligated. After surgery, the posture of the sham-operated and SNL rats was closely monitored before they were used in different experiments.
Mechanical hyperalgesia was measured as the threshold to a noxious mechanical stimulus. Nociceptive thresholds (NT) were determined in handled rats by a modification of the Randall-Selitto method (Kayser et al., Brain Res 1990; 508:329-332). Briefly, a constantly increasing pressure is applied to the rat hind paw until vocalization occurs. A Basile analgesimeter (Apelex, Massy, France; stylus tip diameter, 1 mm) was used. A 600-g cut-off value was determined to prevent tissue damage.
It was administered by oral gavage at different doses in a volume of 1 ml/kg body weight in a solution of dimethylsulfoxide (DMSO) at 3%. Control animals received an equal volume of DMSO 3%.
The data are presented as means±SEM. One-way ANOVA was used to assess individual group comparisons. […] The Newman-Keuls test was used for multiple comparisons between groups.

[3] = system: human tumor cells expressing FLT3-ITD (MV4,11); conditions: mouse xenograft model; literature references in Table 1; cited from earlier work
[4] = Active (recommended or clinically efficacious) dose for treating cancer in patients; format: in vivo; conditions: converted for a human with a body weight of 60 kg; advanced or recurrent head and neck cancers
Text: Active doses for FLT3 receptor inhibitor, according to Method 1 as described above, are the recommended doses, as appearing in the drug label when the product is marketed. […] Such information may be found via various sources well known by the person skilled in the art, such as articles, FDA data publications, labeling of marketed products, Summary of Product Characteristics (SmPC) from the European Medicine Agency (EMA), clinical trial descriptions from the US National Institute of Health (available at www.clinicaltrials.gov) and information on the outer product packaging.

[5] = system: inflammatory pain (CFA-induced mechanical hypersensitivity); test: Complete Freund's Adjuvant (CFA) inflammatory pain model, von Frey mechanical hypersensitivity; format: in vivo; conditions: CFA mice; sunitinib 5 or 20 mg/kg; measured 1 and 2 days after administration
Protocol: Adult mice (8-10 week-old) (Janvier LABS, Le Genest Saint-Isle, France) were used according to the guidelines of the International Association for the Study of Pain. Mice were housed in cages with a 12/12 hr light/dark cycle and fed food and water ad libitum. Behavioral responsiveness of the animals was tested following ten days of habituation to the testing environment and the observer. Before testing, mice were acclimatized for 60 min in the temperature and light-controlled testing room within a plastic cylinder or on wire mesh.
A 0.6 g-von Frey filament was used for measuring punctuate hindpaw mechanical hypersensitivity with the dynamic plantar aesthesiometer (Bioseb, France). Sharp withdrawal of the stimulated hindpaw was considered as a positive response. The procedure was applied 10 times and the percentage of positive responses was calculated. Basal positive responses were recorded twice during two, consecutive days.
Inflammatory pain was produced by local injection of Complete Freund's Adjuvant (CFA), which induces a prolonged swelling that becomes maximal at 24 hrs and persists for at least 7 days (Iadarola et al., Pain. 1988; 35:313-26). […] Mechanical hypersensitivity was measured 4 days later. […]

[6] = system: human tumor cells expressing FLT3-ITD (MV4,11); test: Tumor regression in mouse xenograft model sensitive to FLT3 inhibition; format: in vivo; conditions: allometric FDA factor for the mouse 12.3; 60 kg
Text: The dose of FLT3 receptor inhibitor that induces tumor regression in animal models can be measured by using a mouse xenograft model, which is sensitive to FLT3 inhibition. Such a model may consist in an athymic immuno-deficient mouse implanted with human tumor cells that express a mutated, spontaneously activated, form of FLT3. […] An example of tumor cells that express FLT3-ITD is the MV4,11 cell line (Lange et al., Blood, 1987, 70:192-199).

[7] = biological target: T1, FLT3 (Mus musculus, UniProt Q00342); test: FL potentiation of capsaicin-induced [Ca2+]i response in DRG neurons primary culture; format: cell-based, mice; conditions: FL 0.56 nM, capsaicin 0.5 μM
T1 construct: Primary neuronal cultures were established from lumbar (L4 to L6) dorsal root ganglia (DRG) of adult mice; endogenous in cells; host or cells: primary DRG neurons from adult mice
T1 sequence (Q00342 28-1000): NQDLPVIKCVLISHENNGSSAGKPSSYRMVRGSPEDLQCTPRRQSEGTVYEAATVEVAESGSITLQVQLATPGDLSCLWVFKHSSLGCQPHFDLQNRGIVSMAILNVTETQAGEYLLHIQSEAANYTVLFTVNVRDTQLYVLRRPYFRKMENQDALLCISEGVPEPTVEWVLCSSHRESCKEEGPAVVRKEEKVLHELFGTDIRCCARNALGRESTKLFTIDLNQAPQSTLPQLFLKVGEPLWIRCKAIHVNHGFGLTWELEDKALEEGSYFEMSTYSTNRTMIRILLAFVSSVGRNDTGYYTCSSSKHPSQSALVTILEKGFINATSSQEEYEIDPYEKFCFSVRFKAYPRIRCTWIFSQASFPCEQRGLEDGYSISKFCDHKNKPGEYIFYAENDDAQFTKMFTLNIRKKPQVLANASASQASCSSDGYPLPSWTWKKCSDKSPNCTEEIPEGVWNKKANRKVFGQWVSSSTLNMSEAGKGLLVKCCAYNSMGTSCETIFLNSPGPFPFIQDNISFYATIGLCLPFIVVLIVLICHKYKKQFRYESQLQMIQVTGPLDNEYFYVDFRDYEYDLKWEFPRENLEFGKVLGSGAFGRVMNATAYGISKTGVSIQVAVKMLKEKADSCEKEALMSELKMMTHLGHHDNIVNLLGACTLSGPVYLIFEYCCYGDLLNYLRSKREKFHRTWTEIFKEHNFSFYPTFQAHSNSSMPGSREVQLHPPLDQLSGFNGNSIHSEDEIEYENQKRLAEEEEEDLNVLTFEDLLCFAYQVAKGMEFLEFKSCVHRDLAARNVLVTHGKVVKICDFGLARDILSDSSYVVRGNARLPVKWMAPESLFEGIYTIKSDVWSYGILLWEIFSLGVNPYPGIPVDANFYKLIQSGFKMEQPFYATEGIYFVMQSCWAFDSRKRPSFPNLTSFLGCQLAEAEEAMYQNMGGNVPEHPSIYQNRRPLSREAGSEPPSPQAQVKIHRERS
Protocol: Primary neuronal cultures were established from lumbar (L4 to L6) dorsal root ganglia (DRG) of adult mice as previously described (Boudes et al, J. Neurosci. 29, 46, 10060-10068). Ganglia were treated twice with collagenase A (1 mg/ml, Roche Diagnostic, France) for 45 minutes (37° C.) and then with trypsin-EDTA (0.25%, Sigma, St Quentin Fallavier, France) for 30 minutes. They were mechanically dissociated by passing 8 to 10 times through the tip of a fire-polished Pasteur pipette in neurobasal (Life Technologies, Cergy Pontoise, France) culture medium supplemented with 10% foetal bovine serum and DNase (50 U/ml, Sigma, St Quentin Fallavier, France). Isolated cells were collected by centrifugation and suspended in neurobasal culture medium supplemented with 2% B27 (Life Technologies), 2 mM glutamine, penicillin/streptomycin (20 U/ml, 0.2 mg/ml). […]
For intracellular Ca^2+ measurements, DRG neurons were used 18-30 h after plating as described previously. […] A Fura filter cube with 400 long pass dichroic and D510/40m emission band pass was used to collect fluorescence emissions separately for each wavelength. Images were acquired and analyzed with Metafluor software (Molecular Devices). Changes in intracellular calcium concentrations ([Ca^2+]i) were monitored as changes of the ratio of the fura-2-fluorescence intensity recorded at 340 nm and 380 nm excitation wavelengths (ΔF340/380). […]

Molecule: COc1cc(Nc2ncc(F)c(Nc3ccc4c(n3)N(COP(=O)(O)O)C(=O)C(C)(C)O4)n2)cc(OC)c1OC [Fostamatinib]
Active dose for treating cancer (by cancer type) ([1]; twice a day): 100-200 twice a day

Molecule: CCc1nc(C(N)=O)c(Nc2ccc(N3CCC(N4CCN(C)CC4)CC3)c(OC)c2)nc1NC1CCOCC1 [Gilteritinib]
maximal inhibition on the SNL model in rat (dose) [2]: 2 mg/kg
Human Equivalent Dose (HED) from SNL rat dose [2]: HED = 19.4 mg
Human Equivalent Dose (HED) from SNL rat dose ([2]; listed as gilteritinib): 19.4 mg

Molecule: Nc1ncc(-c2cnn(CCO)c2)c2scc(-c3ccc(NC(=O)Nc4cccc(F)c4)cc3)c12 [Ilorasertib]
Active dose for treating cancer (by cancer type) ([1]; once weekly, acute myelogenous leukaemia, myelodysplastic syndrome or chronic myelomonocytic leukaemia): 540 mg once weekly
minimum inhibiting dose inducing maximal tumor regression [3]: 20 mg/kg

Molecule: CO[C@@H]1[C@H](N(C)C(=O)c2ccccc2)C[C@H]2O[C@]1(C)n1c3ccccc3c3c4c(c5c6ccccc6n2c5c31)C(=O)NC4 [Midostaurin]
Human Equivalent Dose (HED) from SNL rat dose [2]: 39 mg
Human Equivalent Dose (HED) from SNL rat dose ([2]; listed as Midostaurine): HED = 39 mg

Molecule: C1=C/COCc2cc(ccc2OCCN2CCCC2)Nc2nccc(n2)-c2cccc(c2)COC/1 [Pacritinib]
Active dose for treating cancer (by cancer type) ([1]; once daily): 400
Active dose for treating cancer (by cancer type) ([1]; twice daily): 200

Molecule: CC(C)(C)c1cc(NC(=O)Nc2ccc(-c3cn4c(n3)sc3cc(OCCN5CCOCC5)ccc34)cc2)no1 [Quizartinib]
maximal inhibition on the SNL model in rat (dose) [2]: 0.77 mg/kg
Human Equivalent Dose (HED) from SNL rat dose [2]: HED = 7.5 mg
Human Equivalent Dose (HED) from SNL rat dose ([2]; listed as quizartinib): 7.5 mg

Molecule: Cc1cc(C)c(/C=C2\C(=O)Nc3ccccc32)[nH]1 [Semaxinib]
Active dose for treating cancer (by cancer type) ([1]; advanced or recurrent head and neck cancers): 145 mg/m^2
Active dose for treating cancer (by cancer type) [4]: 235 mg

Molecule: CNC(=O)c1cc(Oc2ccc(NC(=O)Nc3ccc(Cl)c(C(F)(F)F)c3)cc2)ccn1 [Sorafenib]
minimum inhibiting dose inducing maximal tumor regression [3]: 10 mg/kg

Molecule: CCN(CC)CCNC(=O)c1c(C)[nH]c(/C=C2\C(=O)Nc3ccc(F)cc32)c1C [Sunitinib]
mechanical hypersensitivity (percentage of withdrawal after mechanical stimulation) [5]: inactive
inhibiting dose giving 50% of inhibition (ID50) of SNL-induced mechanical hypersensitivity ([2]; SNL rats, oral): 0.015 mg/kg
minimal dose for maximal inhibition of pain sensitivity ([2]; SNL rats, oral administration, paw pressure 24 hours after administration): 0.075 mg/kg
Human Equivalent Dose (HED) from SNL rat dose [2]: HED = 0.73 mg
Human Equivalent Dose (HED) from SNL rat dose ([2]; listed as sunitinib): 0.73 mg
Human Equivalent Dose (HED) from mouse tumor regression dose [6]: 98 mg
IC50 ([7]; non-linear regression, read-out: IC50 for inhibition of FL potentiation of the [Ca2+]i peak response to capsaicin): 0.7 nM

effect on [Ca2+]i peak response to capsaicin [7]: elicited a potentiation
B1: FL: cytokine which is a natural ligand of the FLT3 receptor; from ABCYS SA (protein, UniProt P49771 27-235, looked up)
Fms-related tyrosine kinase 3 …: TQDCSFQHSPISSDFAVKIRELSDYLLQDYPVTVASNLQDEELCGGLWRLVLAQRWMERLKTVAGSKMQGLLERVNTEIHFVTKCAFQPPPSCLRFVQTNISRLLQETSEQLVALKPWITRQNFSRCLELQCQPDSSTLPPPWSPRPLEATAPTAPQPPLLLLLLLPVGLLLLAAAWCLHWQRTRRRTPRPGEQVPPVPSPQDLLLVEH
